Experimental data reported in US8252737B2, “Antimicrobial peptides and methods of use” (priority 2004, dated 2012).
Values after ≈ are worked out from the molar mass of the structure shown. Read-outs that look alike come from different tables or passages of the source.

Legend:
E. faecalis = test system: E. faecalis
Summary of the method: (§1)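 Microtiter dilution in LB no-salt or Mueller-Hinton medium, with BHI for Pseudomonas aeruginosa clinical isolates (final inoculum 1×10^6 CFU/ml). Plates were incubated 24 hours at 37° C. MIC was the lowest peptide concentration inhibiting growth.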

C. albicans = test system: C. albicans
Summary of the method: as §1

[1] = test system: Pseudomonas aeruginosa strains; conditions: for Antimicrobial activity Fold: fold improvement in geometric mean MIC compared to V681; for MIC CP 204: strain CP 204
human red blood cells = assay: Hemolysis time study (0-8 hours, 8-500 μg/ml); conditions: 500 μg/ml, after 1 hour incubation
Experimental: The percent hemolysis of cells was determined spectrophotometrically by comparison with the complete hemolysis of cells in water.
[…] Peptide samples were diluted 2 fold in order to determine the concentration that produced no hemolysis. […] Hemoglobin release was determined spectrophotometrically at 562 nm. The hemolytic titer was the highest 2-fold dilution of the peptide that still caused release of hemoglobin from erythrocytes. The control for no release of hemoglobin was a sample of 1% erythrocytes without any peptide added. […] Peptide samples were diluted 2 fold in order to determine the concentration that produced no hemolysis. […] Hemoglobin release was determined spectrophotometrically at 570 nm. The hemolytic titer was the highest 2-fold dilution of the peptide that still caused release of hemoglobin from erythrocytes. The control for no release of hemoglobin was a sample of 1% erythrocytes without any peptide added.

[2] = CD temperature denaturation study of peptide V681; format: physicochemical; conditions: 50% TFE in 0.05% aq. TFA (pH 2); 50% of α-helical structure denatured
Experimental: We next used temperature profiling during RP-HPLC to determine the self-association ability of the various analogs of V681 which would occur through interaction of the non-polar faces of these amphipathic α-helices. […] In order to investigate the stability of V681 in a hydrophobic environment, we carried out a temperature denaturation study in solution, as monitored by circular dichroism spectroscopy. […]
CD Temperature Denaturation Study of Peptide V681—The native peptide V681 was dissolved in 0.05% aqueous TFA containing 50% TFE, pH 2, loaded into a 0.02 cm fused silica cell and peptide ellipticity scanned from 190 to 250 nm at temperatures of 5, 15, 25, 35, 45, 55, 65 and 80° C. […] ([θ]t−[θ]u)/([θ]5−[θ]u) was calculated and plotted against temperature in order to obtain the thermal melting profiles, where [θ]5 and [θ]u represent the molar ellipticity values for the fully folded and fully unfolded species, respectively. [θ]u was determined in the presence of 8M urea with a value of 1500 deg cm^2 dmol^−1 to represent a totally random coil state (31). The melting temperature (Tm) was calculated as the temperature at which the α-helix was 50% denatured (([θ]t−[θ]u)/([θ]5−[θ]u)=0.5) and the values were taken as a measure of α-helix stability.

[3] = geometric mean of six Pseudomonas aeruginosa clinical isolates
[4] = methicillin-resistant clinical strain

SMILES	MIC (μg/ml) C. albicans (C. albicans; fungus) [µg/mL]	Antimicrobial activity Fold [1]	MIC GM [1, 3] [µg/mL]	MIC CP 204 [1] [µg/mL]	MIC M 2 ([1]; strain M 2) [µg/mL]	MIC PA 14 ([1]; strain PA 14) [µg/mL]	MIC PAK ([1]; strain PAK) [µg/mL]	MIC PAO 1 ([1]; strain PAO 1) [µg/mL]	MIC WR 5 ([1]; strain WR 5) [µg/mL]	MIC (μg/ml) C. xerosis C875 wt (Corynebacterium xerosis) [µg/mL]	MIC (μg/ml) B. subtilis C971 wt (Bacillus subtilis) [µg/mL]	MIC (μg/ml) E. faecalis C625 wt (E. faecalis) [µg/mL]	MIC (μg/ml) S. aureus 623 methR (Staphylococcus aureus; [4]) [µg/mL]	MIC (μg/ml) S. aureus 622 wt (Staphylococcus aureus; wild type strain) [µg/mL]	also measured
CC[C@H](C)[C@H](NC(=O)[C@H](C)NC(=O)[C@H](CCCCN)NC(=O)[C@H](CC(C)C)NC(=O)[C@H](C)NC(=O)[C@@H](NC(=O)[C@H](Cc1cnc[nH]1)NC(=O)[C@H](CC(C)C)NC(=O)[C@@H](NC(=O)[C@@H](NC(=O)[C@H](CCCCN)NC(=O)[C@H](CCCCN)NC(=O)[C@H](C)NC(=O)[C@H](CO)NC(=O)[C@H](CCCCN)NC(=O)[C@H](Cc1ccccc1)NC(=O)[C@@H](NC(=O)[C@H](CCCCN)NC(=O)[C@H](CC(C)C)NC(=O)[C@H](Cc1ccccc1)NC(=O)[C@H](CO)NC(=O)[C@H](CCCCN)NC(=O)[C@H](Cc1c[nH]c2ccccc12)NC(=O)[C@H](CCCCN)NC(C)=O)[C@@H](C)O)[C@@H](C)O)C(C)C)[C@@H](C)O)C(=O)N[C@@H](CO)C(=O)N[C@@H](CO)C(N)=O [NKL]	50.0 (≈ 16.7 µM)	0.6	49.6 (≈ 16.6 µM)	7.8 (≈ 2.61 µM)	31.3 (≈ 10.5 µM)	62.5 (≈ 20.9 µM)	125.0 (≈ 41.8 µM)	31.3 (≈ 10.5 µM)	250.0 (≈ 83.6 µM)	1.6 (≈ 0.535 µM)	3.1 (≈ 1.04 µM)				MIC (μg/ml) E. faecalis C625 wt (E. faecalis; wild type strain): 50.0 µg/mL (≈ 16.7 µM); MIC (μg/ml) S. aureus 622 wt (Staphylococcus aureus): 12.5 µg/mL (≈ 4.18 µM); MIC (μg/ml) S. aureus 623 methR (Staphylococcus aureus): 12.5 µg/mL (≈ 4.18 µM); MIC (μg/ml) CP 204 ([1]; Pseudomonas aeruginosa clinical isolate CP 204): 7.8 µg/mL (≈ 2.61 µM); MIC (μg/ml) M 2 ([1]; Pseudomonas aeruginosa clinical isolate M 2): 31.3 µg/mL (≈ 10.5 µM); MIC (μg/ml) PA 14 ([1]; Pseudomonas aeruginosa clinical isolate PA 14): 62.5 µg/mL (≈ 20.9 µM); MIC (μg/ml) PAK ([1]; Pseudomonas aeruginosa clinical isolate PAK): 125.0 µg/mL (≈ 41.8 µM); MIC (μg/ml) PAO 1 ([1]; Pseudomonas aeruginosa clinical isolate PAO 1): 31.3 µg/mL (≈ 10.5 µM); MIC (μg/ml) WR 5 ([1]; Pseudomonas aeruginosa clinical isolate WR 5): 250.0 µg/mL (≈ 83.6 µM); MIC (μg/ml) GM ([1]; geometric mean of the MIC values for the 6 Pseudomonas aeruginosa clinical isolates): 49.6 µg/mL (≈ 16.6 µM)
CC[C@H](C)[C@H](NC(=O)[C@H](C)NC(=O)[C@H](CCCCN)NC(=O)[C@H](CC(C)C)NC(=O)[C@H](C)NC(=O)[C@@H](NC(=O)[C@H](Cc1c[nH]cn1)NC(=O)[C@H](CC(C)C)NC(=O)[C@@H](NC(=O)[C@@H](NC(=O)[C@H](CCCCN)NC(=O)[C@@H](NC(=O)[C@H](C)NC(=O)[C@H](CO)NC(=O)[C@H](CCCCN)NC(=O)[C@H](Cc1ccccc1)NC(=O)[C@@H](NC(=O)[C@H](CCCCN)NC(=O)[C@H](CC(C)C)NC(=O)[C@H](Cc1ccccc1)NC(=O)[C@H](CO)NC(=O)[C@H](CCCCN)NC(=O)[C@H](Cc1c[nH]c2ccccc12)NC(=O)[C@H](CCCCN)NC(C)=O)[C@@H](C)O)C(C)C)[C@@H](C)O)C(C)C)[C@@H](C)O)C(=O)N[C@@H](CO)C(=O)N[C@@H](CO)C(N)=O [Peptide V681, reference compound]	12.5 (≈ 4.22 µM)	1.0	27.8 (≈ 9.39 µM)	15.6 (≈ 5.27 µM)	15.6 (≈ 5.27 µM)	62.5 (≈ 21.1 µM)	31.3 (≈ 10.6 µM)	15.6 (≈ 5.27 µM)	62.5 (≈ 21.1 µM)	3.1 (≈ 1.05 µM)	3.1 (≈ 1.05 µM)	6.3 (≈ 2.13 µM)	6.3 (≈ 2.13 µM)	3.1 (≈ 1.05 µM)	hemolysis of human red blood cells (human red blood cells): 100%; transition temperature Tm [2]: 79.3 °C
CC[C@H](C)[C@H](NC(=O)[C@H](C)NC(=O)[C@H](CCCCN)NC(=O)[C@H](CC(C)C)NC(=O)[C@H](C)NC(=O)[C@@H](NC(=O)[C@H](Cc1c[nH]cn1)NC(=O)[C@H](CC(C)C)NC(=O)[C@@H](NC(=O)[C@@H](NC(=O)[C@H](CCCCN)NC(=O)[C@@H](C)NC(=O)[C@H](C)NC(=O)[C@H](CO)NC(=O)[C@H](CCCCN)NC(=O)[C@H](Cc1ccccc1)NC(=O)[C@@H](NC(=O)[C@H](CCCCN)NC(=O)[C@H](CC(C)C)NC(=O)[C@H](Cc1ccccc1)NC(=O)[C@H](CO)NC(=O)[C@H](CCCCN)NC(=O)[C@H](Cc1c[nH]c2ccccc12)NC(=O)[C@H](CCCCN)NC(C)=O)[C@@H](C)O)[C@@H](C)O)C(C)C)[C@@H](C)O)C(=O)N[C@@H](CO)C(=O)N[C@@H](CO)C(N)=O [NAD]		1.3		7.8 (≈ 2.66 µM)						1.6 (≈ 0.545 µM)	3.1 (≈ 1.06 µM)	12.5 (≈ 4.26 µM)	3.1 (≈ 1.06 µM)	1.6 (≈ 0.545 µM)	MIC (μg/ml) C. albicans (C. albicans): 12.5 µg/mL (≈ 4.26 µM); MIC GM ([1]; strains): 22.1 µg/mL (≈ 7.53 µM); MIC M 2 ([1]; strains): 7.8 µg/mL (≈ 2.66 µM); MIC PA 14 ([1]; strains): 31.3 µg/mL (≈ 10.7 µM); MIC PAK ([1]; strains): 62.5 µg/mL (≈ 21.3 µM); MIC PAO 1 ([1]; strains): 15.6 µg/mL (≈ 5.32 µM); MIC WR 5 ([1]; strains): 62.5 µg/mL (≈ 21.3 µM)
